Legend:
human DHODH = human DHODH (Homo sapiens (Human), UniProt Q02127); experiment: DHODH Enzymatic Assay; format: biochemical; settings: purified human DHODH, DCIP absorbance, end-point mode; read-out: hDHODH IC50
Experimental: The following assay is referred to herein as the “DHODH Enzymatic Assay.” To detect DHODH enzyme activities, dichloroindophenol (DCIP) is added as the final electron acceptor in the assay. DCIP can accept electrons from the reduced coenzyme Q generated in the assay, or from dihydroorotate (DHO) via FMN by binding presumably to the ubiquinone pocket. DCIP solutions are blue, with an intense absorbance around 600 nm, but becomes colorless upon reduction (J. Biol. Chem. (1986) 261, 11386). The assay buffer contained […], pH 7.5, 150 mM NaCl, 0.5 mM EDTA, and 0.1% Triton X-100 in MilliQ water. Substrate consisting of 20 mM DHO, 5 mM CoQ6, and 1 mM DCIP in assay buffer, initiates the reaction. The assay is run in end-point mode by quenching the reaction with the potent DHODH inhibitor brequinar. Absorbance measurements were obtained using the BMG Phera Star plate-reading spectrophotomer. Purified human DHODH was purchased from Proteros (cat. No. PR-0044). Chemicals were purchased from Sigma-Aldrich, Teknova, and Avanti Polar Lipids. Liquid handling was performed using Labcyte Echo and Formulatrix Tempest.

[1] = system: MOLM-13 cells (human acute myeloid leukemia cells); experiment: MOLM-13 Cellular Assay; format: cell-based; settings: 72 hours exposure, cell viability by CellTiter-Glo
Experimental: The following assay is referred to herein as the “MOLM-13 Cellular Assay.” MOLM-13 cells (human acute myeloid leukemia cells) were obtained from DSMZ and were maintained in RPMI 1640+Glutamax+25 mM HEPES (Invitrogen, catalog number 72400) supplemented with 10% heat inactivated fetal bovine serum (FBS; Invitrogen, catalog number 16140). The day prior to assay set-up, cells were pelleted, resuspended in fresh media, counted, and cells were plated at 0.4×10^6 cell/mL in a T150 flask. On the day of the assay, cells were pelleted, resuspend in fresh media, counted and seeded at 5,000 cells/well in white opaque 96-well tissue culture treated microplates (Perkin Elmer, catalog number 6005680). Cells were exposed to different concentrations of test compounds at 37° C., 5% CO2 for 72 hours immediately after seeding. Cell viability was acquired on a Perkin Elmer Envision 2104 multilabel reader using the CellTiter-Glo assay (Promega) according to the manufacturer's instructions.

Sequence of human DHODH (Q02127 whole entry): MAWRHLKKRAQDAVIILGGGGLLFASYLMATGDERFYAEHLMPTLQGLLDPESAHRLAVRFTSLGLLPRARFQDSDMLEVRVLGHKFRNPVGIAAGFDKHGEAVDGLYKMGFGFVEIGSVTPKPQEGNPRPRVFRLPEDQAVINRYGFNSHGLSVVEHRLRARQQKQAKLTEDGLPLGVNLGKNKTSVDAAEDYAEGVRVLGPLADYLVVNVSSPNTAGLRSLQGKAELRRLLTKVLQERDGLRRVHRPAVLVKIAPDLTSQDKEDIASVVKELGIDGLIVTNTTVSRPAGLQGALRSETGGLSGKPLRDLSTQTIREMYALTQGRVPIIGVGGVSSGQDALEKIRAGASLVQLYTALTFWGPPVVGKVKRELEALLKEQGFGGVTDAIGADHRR

SMILES | IC50 (human DHODH) | IC50 ([1]; Homo sapiens, MOLM-13, 72 h) | IC50 [1]
C=C(C)c1cn(-c2cccc(F)c2)c(=O)c2ccc(-n3nc(CO)n(CC)c3=O)cc12 [Example 1, 6-(4-Ethyl-3-(hydroxymethyl)-5-oxo-4,5-dihydro-1H-1,2,4-triazol-1-yl)-2-(3-fluorophenyl)-4-(prop-1-en-2-yl)isoquinolin-1(2H)-one] | 9.89 nM | 6 nM | –
CCn1c(CO)nn(-c2ccc3c(=O)n(-c4cccc(F)c4)cc(C(C)C)c3c2)c1=O [Example 2, 6-(4-Ethyl-3-(hydroxymethyl)-5-oxo-4,5-dihydro-1H-1,2,4-triazol-1-yl)-2-(3-fluorophenyl)-4-isopropylisoquinolin-1(2H)-one] | 75.9 nM | 40 nM | –
CCn1c(CO)nn(-c2ccc3c(=O)n(-c4c(F)cccc4Cl)cc(C(C)C)c3c2)c1=O [Example 3, 2-(2-Chloro-6-fluorophenyl)-6-(4-ethyl-3-(hydroxymethyl)-5-oxo-4,5-dihydro-1H-1,2,4-triazol-1-yl)-4-isopropylisoquinolin-1(2H)-one] | 3.46 nM | 2 nM | –
CCn1c(CO)nn(-c2ccc3c(=O)n(-c4cccc(F)c4)cc(-c4ccccc4)c3c2)c1=O [Example 4, 6-(4-Ethyl-3-(hydroxymethyl)-5-oxo-4,5-dihydro-1H-1,2,4-triazol-1-yl)-2-(3-fluorophenyl)-4-phenylisoquinolin-1(2H)-one] | 177 nM | 100 nM | –
CCn1c(CO)nn(-c2ccc3c(=O)n(-c4c(F)cccc4Cl)cc(C4CC4)c3c2)c1=O [Example 9, 2-(2-Chloro-6-fluorophenyl)-4-cyclopropyl-6-(4-ethyl-3-(hydroxymethyl)-5-oxo-4,5-dihydro-1H-1,2,4-triazol-1-yl)isoquinolin-1(2H)-one] | 11.5 nM | 5 nM | –
CCn1c(CO)nn(-c2ccc3c(=O)n(-c4c(F)cccc4Cl)ccc3c2)c1=O [Example 10, 2-(2-Chloro-6-fluorophenyl)-6-(4-ethyl-3-(hydroxymethyl)-5-oxo-4,5-dihydro-1H-1,2,4-triazol-1-yl)isoquinolin-1(2H)-one] | 344 nM | 100 nM | –
C=C(C)c1cn(-c2ccccc2C(F)(F)F)c(=O)c2ccc(-n3nc(CO)n(CC)c3=O)cc12 [Example 12, 6-(4-Ethyl-3-(hydroxymethyl)-5-oxo-4,5-dihydro-1H-1,2,4-triazol-1-yl)-4-(prop-1-en-2-yl)-2-(2-(trifluoromethyl)phenyl)isoquinolin-1(2H)-one] | 2.29 nM | 2 nM | –
C=C(C)c1cn(-c2ccccc2C#N)c(=O)c2ccc(-n3nc(CO)n(CC)c3=O)cc12 [Example 13, 2-(6-(4-Ethyl-3-(hydroxymethyl)-5-oxo-4,5-dihydro-1H-1,2,4-triazol-1-yl)-1-oxo-4-(prop-1-en-2-yl)isoquinolin-2(1H)-yl)benzonitrile] | 5.49 nM | 6 nM | –
CCn1c(CO)nn(-c2ccc3c(=O)n(-c4ccc([N+](=O)[O-])cc4F)cc(I)c3c2)c1=O [Example 16, 6-(4-Ethyl-3-(hydroxymethyl)-5-oxo-4,5-dihydro-1H-1,2,4-triazol-1-yl)-2-(2-fluoro-4-nitrophenyl)-4-iodoisoquinolin-1(2H)-one] | 1180 nM | 300 nM | –
CCn1c(CO)nn(-c2ccc3c(=O)n(-c4ccccc4Cl)nc(C(C)C)c3c2)c1=O [Example 17, 2-(2-Chlorophenyl)-6-(4-ethyl-3-(hydroxymethyl)-5-oxo-4,5-dihydro-1H-1,2,4-triazol-1-yl)-4-isopropylphthalazin-1(2H)-one] | 3.21 nM | 3 nM | –
CCn1c(CO)nn(-c2ccc3c(=O)n(-c4cccc(F)c4)nc(C(C)C)c3c2)c1=O [Example 18, 6-(4-Ethyl-3-(hydroxymethyl)-5-oxo-4,5-dihydro-1H-1,2,4-triazol-1-yl)-2-(3-fluorophenyl)-4-isopropylphthalazin-1(2H)-one] | 80.7 nM | 30 nM | –
CCn1c(CO)nn(-c2ccc3c(=O)n(-c4c(F)cccc4Cl)nc(C(C)C)c3c2)c1=O [Example 19, 2-(2-Chloro-6-fluorophenyl)-6-(4-ethyl-3-(hydroxymethyl)-5-oxo-4,5-dihydro-1H-1,2,4-triazol-1-yl)-4-isopropylphthalazin-1(2H)-one] | 4.96 nM | 4 nM | –
CCc1nn(-c2cccc(F)c2)c(=O)c2ccc(-n3nc(CO)n(CC)c3=O)cc12 [Example 20, 4-Ethyl-6-(4-ethyl-3-(hydroxymethyl)-5-oxo-4,5-dihydro-1H-1,2,4-triazol-1-yl)-2-(3-fluorophenyl)phthalazin-1(2H)-one] | 83.5 nM | 100 nM | –
CCc1nn(-c2ccccc2C)c(=O)c2ccc(-n3nc(CO)n(CC)c3=O)cc12 [Example 21, 4-Ethyl-6-(4-ethyl-3-(hydroxymethyl)-5-oxo-4,5-dihydro-1H-1,2,4-triazol-1-yl)-2-(o-tolyl)phthalazin-1(2H)-one] | 31.2 nM | 10 nM | –
CCn1c(CO)nn(-c2cc3c(C(C)C)cn(-c4c(C)ccnc4Cl)c(=O)c3cc2F)c1=O [Example 23, 2-(2-Chloro-4-methylpyridin-3-yl)-6-(4-ethyl-3-(hydroxymethyl)-5-oxo-4,5-dihydro-1H-1,2,4-triazol-1-yl)-7-fluoro-4-isopropylisoquinolin-1(2H)-one] | 3.57 nM | 3 nM | –

The next molecules have a lower IC50 (human DHODH) than those just listed; values first:

IC50 (human DHODH) | IC50 ([1]; Homo sapiens, MOLM-13, 72 h) | IC50 [1] | SMILES
1.94 nM | 1 nM | – | C=C(c1cn(-c2c(F)cccc2Cl)c(=O)c2ccc(-n3nc(CO)n(CC)c3=O)cc12)C(F)(F)F [Example 6, 2-(2-Chloro-6-fluorophenyl)-6-(4-ethyl-3-(hydroxymethyl)-5-oxo-4,5-dihydro-1H-1,2,4-triazol-1-yl)-4-(3,3,3-trifluoroprop-1-en-2-yl)isoquinolin-1(2H)-one]
1.32 nM | 1 nM | – | CCn1c(CO)nn(-c2cc3c(C(C)C)cn([C@H]4CCC[C@H]4C)c(=O)c3cc2F)c1=O (stereo in doubt) [Example 126, 6-(4-Ethyl-3-(hydroxymethyl)-5-oxo-4,5-dihydro-1H-1,2,4-triazol-1-yl)-7-fluoro-4-isopropyl-2-((1S*,2R*)-2-methylcyclopentyl)isoquinolin-1(2H)-one]
1.29 nM | 0.9 nM | – | C=C(C)c1cn(-c2c(F)cccc2Cl)c(=O)c2ccc(-n3nc(CO)n(CC)c3=O)cc12 [Example 5, 2-(2-Chloro-6-fluorophenyl)-6-(4-ethyl-3-(hydroxymethyl)-5-oxo-4,5-dihydro-1H-1,2,4-triazol-1-yl)-4-(prop-1-en-2-yl)isoquinolin-1(2H)-one]
0.965 nM | 2 nM | – | CCn1c(CO)nn(-c2ccc3c(=O)n(-c4c(Cl)cccc4Cl)cc(C4(C)CC4)c3c2)c1=O [Example 7, 2-(2,6-Dichlorophenyl)-6-(4-ethyl-3-(hydroxymethyl)-5-oxo-4,5-dihydro-1H-1,2,4-triazol-1-yl)-4-(1-methylcyclopropyl)isoquinolin-1(2H)-one]
0.839 nM | 0.7 nM | – | C=C(C)c1cn(-c2c(Cl)cccc2Cl)c(=O)c2ccc(-n3nc(CO)n(CC)c3=O)cc12 [Example 8, 2-(2,6-Dichlorophenyl)-6-(4-ethyl-3-(hydroxymethyl)-5-oxo-4,5-dihydro-1H-1,2,4-triazol-1-yl)-4-(prop-1-en-2-yl)isoquinolin-1(2H)-one]
0.724 nM | 0.4 nM | – | C=C(C)c1cn(-c2ccccc2Cl)c(=O)c2ccc(-n3nc(CO)n(CC)c3=O)cc12 [Example 14, 2-(2-Chlorophenyl)-6-(4-ethyl-3-(hydroxymethyl)-5-oxo-4,5-dihydro-1H-1,2,4-triazol-1-yl)-4-(prop-1-en-2-yl)isoquinolin-1(2H)-one]
0.634 nM | 0.4 nM | – | C=C(C)c1cn(-c2ccccc2C)c(=O)c2ccc(-n3nc(CO)n(CC)c3=O)cc12 [Example 15, 6-(4-Ethyl-3-(hydroxymethyl)-5-oxo-4,5-dihydro-1H-1,2,4-triazol-1-yl)-4-(prop-1-en-2-yl)-2-(o-tolyl)isoquinolin-1(2H)-one]
0.396 nM | ≤ 0.2 nM | 0.2 nM | CCn1c(CO)nn(-c2cc3c(C(C)C)cn(-c4ccccc4C)c(=O)c3cc2F)c1=O [Example 22, 6-(4-Ethyl-3-(hydroxymethyl)-5-oxo-4,5-dihydro-1H-1,2,4-triazol-1-yl)-7-fluoro-4-isopropyl-2-(o-tolyl)isoquinolin-1(2H)-one]
0.222 nM | ≤ 0.2 nM | 0.2 nM | CCn1c(CO)nn(-c2cc3c(C(C)C)cn(-c4c(F)cccc4Cl)c(=O)c3cc2F)c1=O [Example 11, 2-(2-Chloro-6-fluorophenyl)-6-(4-ethyl-3-(hydroxymethyl)-5-oxo-4,5-dihydro-1H-1,2,4-triazol-1-yl)-7-fluoro-4-isopropylisoquinolin-1(2H)-one]
